Measurements taken from patent US7365069B2, “Pyrimidone derivatives” (Bexel Pharmaceuticals Inc., priority 2002, dated 2008).

Tests used:
IL-6 = IL-6 production in LPS-stimulated human whole blood; type: cell-based; conditions: LPS 4 h
Experimental: This assay determines the effect of test compounds on the production of IL-6 from human whole blood. Compounds are tested for their ability to downregulate the production of IL-6 in activated whole blood. The test compounds are pre-incubated for 15 minutes at 37° C. and then stimulated with Lipopolysaccharide (Salmonella abortus equi, 1 μg/ml) for 4 h at 37° C. in 5% CO2. The levels of Interleukin-6 are estimated using Enzyme linked Immunosorbent assay performed in a 96 well format as per the procedure of the manufacturer (Cayman Chemical, Ann Arbor, USA).

COX-2 = target: T1, COX-2 (Homo sapiens, UniProt P35354); assay: Human whole blood assay, COX-2 inhibition (PGE2 ELISA after LPS); type: cell-based; conditions: LPS 24 h
T1 construct: incubation of human blood with lipopolysaccharide (LPS), which induces COX-2 production in the blood; endogenous in cells; host or cells: fresh human whole blood from volunteers, treated with aspirin and then LPS
T1 sequence (P35354 18-604): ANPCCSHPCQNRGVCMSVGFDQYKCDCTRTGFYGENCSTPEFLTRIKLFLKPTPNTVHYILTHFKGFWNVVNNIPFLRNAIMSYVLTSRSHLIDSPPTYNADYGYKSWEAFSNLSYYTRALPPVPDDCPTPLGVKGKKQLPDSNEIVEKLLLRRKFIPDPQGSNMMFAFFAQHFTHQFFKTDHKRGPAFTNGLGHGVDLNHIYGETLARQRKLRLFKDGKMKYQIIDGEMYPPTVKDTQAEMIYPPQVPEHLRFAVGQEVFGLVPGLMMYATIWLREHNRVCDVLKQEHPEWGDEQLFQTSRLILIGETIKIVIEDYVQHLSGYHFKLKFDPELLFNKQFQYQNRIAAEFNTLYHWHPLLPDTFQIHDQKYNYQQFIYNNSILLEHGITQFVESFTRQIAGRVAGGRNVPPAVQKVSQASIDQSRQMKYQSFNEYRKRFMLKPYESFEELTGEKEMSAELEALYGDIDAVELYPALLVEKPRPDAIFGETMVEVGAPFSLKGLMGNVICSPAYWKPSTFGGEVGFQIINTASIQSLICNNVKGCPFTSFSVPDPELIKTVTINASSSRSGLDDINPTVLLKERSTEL
Experimental: In Vivo Evaluation of Cyclooxygenase-2 (COX-2) Inhibition Activity
The COX-2 inhibition activities of the compounds illustrated in the examples are determined by the following method.
Human whole blood provides a protein and cell rich milieu appropriate for the study of biochemical efficacy of anti-inflammatory compounds such as selective COX-2 inhibitors. […] This is correlating with the observation that COX-2 inhibitors have no effect on prostaglandin E2 (PGE2) production in normal blood. These inhibitors are active only after incubation of human blood with lipopolysaccharide (LPS), which induces COX-2 production in the blood.
Fresh blood is collected in tubes containing potassium EDTA by vein puncture from make volunteers. The subjects should have no apparent inflammatory conditions and not taken NSAIDs for at least 7 days prior to blood collection. Blood is treated with aspirin in vitro (10 μg/ml, at time zero) to inactivate COX-1, and then with LPS (10 μg/ml) along with test agents or vehicle. The blood is incubated for 24 h at 37° C., after which the tubes are centrifuged, the plasma is separated and stored at −80° C. (J. Pharmacol. Exp. Ther, 271, 1705, 1994; Proc. Natl. Acad. Sci. USA., 96, 7563, 1999). The plasma is assayed for PGE2 using Cayman ELISA kit as per the procedure outlined by the manufacturer (Cayman Chemicals, Ann Arbor, USA).

Male Wistar rats = assay: Rat carrageenan paw edema test; type: in vivo; conditions: 5 mg/kg body weight, oral, paw volume 3 hours after carrageenan, read-out: Rat Paw Edema model % inhibition
Experimental: Rat Carrageenan Paw Edema Test
The carrageenan paw edema test is performed as described by Winter et al (Proc. Soc. Exp. Biol. Med, 111, 544, 1962). Male Wistar rats are selected and the body weights are equivalent within each group. The rats are fasted for eighteen hours with free access to water. The rats are dosed orally with the test compound suspended in vehicle containing 0.5% methylcellulose. The control rats are administered the vehicle alone. After an hour, the rats are injected with 0.1 ml of 1% Carrageenan solution in 0.9% saline into the sub-plantar surface of the right hind paw. Paw volume is measured using water plethysmograph before and after 3 hours of carrageenan injection. The average of foot swelling in drug treated animals is compared with that of control animals. Anti-inflammatory activity is expressed as the percentage inhibition of edema compared with control group [Arzneim-Forsch/Drug Res., 43(I), 1, 44-50,1993; Ottemess and Bliven, Laboratory Models for Testing NSAIDs, In Non-Steroidal Anti-Inflammatory Drugs, (J. Lombardino, ed. 1985)]. In order to evaluate their role on the ulcer formation, the animals are sacrificed and the stomach is taken out and flushed with 1% formalin. The stomach is opened along the greater curvature. The haemorrhagic puncta and sulci are identified microscopically and images are captured. The stomach lesions are calculated.

TNF-α = TNF-α production in LPS-stimulated human whole blood; type: cell-based; conditions: LPS 4 h
Experimental: Tumor Necrosis Factor Alpha (TNF-α)
This assay determines the effect of test compounds on the production of TNF-α in human whole blood. TNF-α assay is carried out as described by Armin hatzelmann and Christian Schudt (J Pharm Exp Ther 297, 261, 2001). Compounds are tested for their ability to inhibit the activity of TNF-α in human whole blood. The test compounds are pre-incubated for 15 minutes at 37° C. and then stimulated with Lipopolysaccharide (Salmonella abortus equi, 1 μg/ml) for 4 h at 37° C. in 5% CO2. The levels of TNF-α are estimated using Enzyme linked Immunosorbent assay performed in a 96 well format as per the procedure of the manufacturer (Cayman Chemical, Ann Arbor, USA).

MCF-7 = assay: DTP human tumor cell line one-dose prescreen, MCF-7; type: cell-based; conditions: MCF7, 48 hours, Alamar Blue, test/control, read-out: Percentage growth Breast MCF-7
Experimental: (§1) DTP Human Tumor Cell Line Screen
(§2) Methodology of the In Vitro Cancer Screen
(§3) The current assay utilizes a 384 well plate format and fluorescent staining technologies resulting in greater screening capacity for testing of synthetic samples.
(§4) The cell lines of the cancer-screening panel are grown in RPMI 1640 medium containing 5% fetal bovine serum and 2 mM L-glutamine. For a typical screening experiment, cells are inoculated into 96 well microtiter plates in 100 μL. After cell inoculation, the microtiter plates are incubated at 37° C., 5% CO2, 95% air and 100% relative humidity for 24 h prior to addition of experimental drugs. The cells are plated a densities of 5000 cells/well (MCF7), 1000 cells/well (NC1—H460), and 7500 cells/well (SF-268) to allow for varying doubling time of the cell lines. Each plate contains all three cell lines, a series of dilutions of standard agents, total kill wells and appropriate controls. Plates are incubated under standard conditions for 24 hours prior to addition of experimental compounds or extracts.
(§5) Addition of Experimental Agents (Pure Compounds)
(§6) Experimental compounds are solubilized in dimethyl sulfoxide (DMSO) at 400-times the desired maximum test concentration (maximum final DMSO concentration of 0.25%) and stored frozen. Compounds are then diluted with complete media with 0.1% gentamicin sulfate (5 μl of test sample in 100% DMSO is added to 565 μl of complete medium). 20 μl of this solution is then dispensed into test wells containing 50 μl of cell suspension to yield a test concentration of 1.00E-04M.
(§7) Two standard drugs, meaning that their activities against the cell lines are well documented, are tested against each cell line: NSC 19893 (5-FU) and NSC 123127 (Adriamycin).
(§8) After compound addition, plates are incubated at standard conditions for 48 hours, 10 μl/well Alamar Blue is added and the plates are incubated for an additional 4 hours. Fluorescence is measured using an excitation wavelength of 530 nm and an emission wavelength of 590 nm.
(§9) Calculation of Percent Test Cell Growth/Control (Untreated) Cell Growth (T/C)
(§10) Percent growth is calculated on a plate-by-plate basis for test wells relative to control wells. Percent Growth is expressed as the ratio of fluorescence of the test well to the average fluorescence of the control wells x 100.

NCI-H460 = assay: DTP human tumor cell line one-dose prescreen, NCI-H460; type: cell-based; conditions: 48 hours, Alamar Blue, test/control, read-out: Percentage growth Lung NCI-H460
Experimental: as §1, §2, §3, §4, §5, §6, §7, §8, §9, §10

SF-268 = assay: DTP human tumor cell line one-dose prescreen, SF-268; type: cell-based; conditions: 48 hours, Alamar Blue, test/control, read-out: Percentage growth CNS SF-268
Experimental: as §1, §2, §3, §4, §5, §6, §7, §8, §9, §10

Compound	inhibition at 0.25 µM (IL-6)	inhibition at 0.25 µM (COX-2)	melting point	activity at 100 µM (MCF-7)	activity at 100 µM (NCI-H460)	also measured
CSc1nc(-c2ccc(S(C)(=O)=O)cc2)n(-c2ccc(C(C)C)cc2)c(=O)c1C#N [Example 11, 5-cyano-1-(4-isopropylphenyl)-2-[4-(methylsulfonyl)phenyl]-4-(methylthio)-6-oxo-1,6-dihydropyrimidine]	70.8%	31.1%	211 to 212 °C	–	–	inhibition in vivo at 5 mg/kg (Male Wistar rats): 63.8%; inhibition at 0.25 µM (TNF-α): 63.8%
CSc1nc(-c2ccc(S(C)(=O)=O)cc2)n(-c2ccc(C)c(C)c2)c(=O)c1C#N [Example 12, 5-cyano-1-(3,4-dimethylphenyl)-2-[4-(methylsulfonyl)phenyl]-4-(methylthio)-6-oxo-1,6-dihydropyrimidine]	28.7%	36.5%	245 to 247 °C	–	–	inhibition in vivo at 5 mg/kg (Male Wistar rats): 41.2%; inhibition at 0.25 µM (TNF-α): 27.2%
COc1ccc(-n2c(-c3ccc(SC)cc3)nc(SC)c(C#N)c2=O)cc1 [Example 16, 5-cyano-1-(4-methoxyphenyl)-4-(methylthio)-2-[4-(methylthio)phenyl]-6-oxo-1,6-dihydropyrimidine]	–	–	214 to 216 °C	90%	95%	inhibition at 10 µM (TNF-α): 59.8%
CSc1nc(-c2ccccc2)n(-c2ccc(F)cc2)c(=O)c1C#N [Example 17, 5-cyano-1-(4-fluorophenyl)-4-(methylthio)-2-phenyl-6-oxo-1,6-dihydropyrimidine]	16.2%	16.2%	204 to 205 °C	–	–	inhibition at 10 µM (TNF-α): 47.4%
CSc1ccc(-n2c(-c3cccnc3)nc(SC)c(C#N)c2=O)cc1 [Example 27, 5-cyano-4-(methylthio)-1-[4-(methylthio)phenyl]-6-oxo-2-pyridin-3-yl-1,6-dihydropyrimidine]	–	–	212 to 215 °C	23%	14%	activity at 100 µM (SF-268): 51%
CSc1ccc(-n2c(-c3ccncc3)nc(SC)c(C#N)c2=O)cc1 [Example 28, 5-cyano-4-(methylthio)-1-[4-(methylthio)phenyl]-6-oxo-2-pyridin-4-yl-1,6-dihydropyrimidine]	–	–	227 to 229 °C	48%	20%	activity at 100 µM (SF-268): 63%
CSc1nc(-c2ccccn2)n(-c2ccc(F)cc2)c(=O)c1C#N [Example 29, 5-cyano-1-(4-fluorophenyl)-4-(methylthio)-6-oxo-2-pyridin-2-yl-1,6-dihydropyrimidine]	–	–	221 to 227 °C	80%	23%	activity at 100 µM (SF-268): 92%
CCOC(=O)c1c(SC)nc(-c2ccc(SC)cc2)n(-c2ccc(F)cc2)c1=O [Example 42, ethyl 1-(4-fluorophenyl)-4-(methylthio)-2-[4-(methylthio)phenyl]-6-oxo-1,6-dihydropyrimidine-5-carboxylate]	–	–	151 to 155 °C	–	–	inhibition at 0.1 µM (IL-6; 0.1 μM): 59.7%; inhibition at 0.1 µM (COX-2; 0.1 μM): 37.6%; inhibition at 0.1 µM (TNF-α; 0.1 μM): 49.6%
CCOC(=O)c1c(SC)nc(-c2ccc(F)cc2)n(-c2ccc(SC)cc2)c1=O [Example 43, ethyl 2-(4-fluorophenyl)-4-(methylthio)-1-[4-(methylthio)phenyl]-6-oxo-1,6-dihydropyrimidine-5-carboxylate]	10.4%	–	166 to 169 °C	68%	79%	inhibition at 1 µM (COX-2): 27.5%; inhibition at 1 µM (TNF-α): 36.4%
CNc1nc(-c2ccc(SC)cc2)n(-c2ccc(C)cc2)c(=O)c1C#N [Example 54, 5-cyano-4-(methylamino)-1-(4-methylphenyl)-2-[4-(methylthio)phenyl]-6-oxo-1,6-dihydropyrimidine]	–	72.1%	268 to 271 °C	–	–	inhibition at 1 µM (IL-6; 1 μM): 15.5%; inhibition at 1 µM (TNF-α): 15.6%
CNc1nc(-c2ccc(SC)cc2)n(-c2ccc(C)c(C)c2)c(=O)c1C#N [Example 55, 5-cyano-1-(3,4-dimethylphenyl)-4-(methylamino)-2-[4-(methylthio)phenyl]-6-oxo-1,6-dihydropyrimidine]	–	–	199 to 205 °C	–	–	inhibition at 1 µM (COX-2): 8.2%; inhibition at 1 µM (TNF-α): 54.4%
